“And” between values parts separate entries of the source, which are not always exact repeats. Equal entries are not always repeated. Inconclusive results and toxic doses are left out.
System: BDF1 mice, P388 leukemia ip, median survival T/C
Test: NCI In Vivo Anticancer Drug Screen. Data for tumor model P388 Leukemia (intraperitoneal) in B6D2F1 (BDF1) mice
Settings: endpoint: median survival time, higher = longer survival
How it was run: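 Each value expresses how treatment altered survival: treated-mouse outcome over vehicle-mouse outcome, both groups bearing the transplanted tumour.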

[1] = dose: 100.0 mg/kg/injection, schedule: Q01DX009 (ip), vehicle: Klucel (hydroxypropylcellulose) (HPC)
[2] = dose: 100.0 mg/kg/injection, schedule: Q04DX003 (ip), vehicle: Klucel (hydroxypropylcellulose) (HPC)
[3] = dose: 200.0 mg/kg/injection, schedule: Q01DX009 (ip), vehicle: Klucel (hydroxypropylcellulose) (HPC)
[4] = dose: 400.0 mg/kg/injection, schedule: Q01DX009 (ip), vehicle: Klucel (hydroxypropylcellulose) (HPC)
[5] = dose: 25.0 mg/kg/injection, schedule: Q01DX009 (ip), vehicle: saline with Tween-80
[6] = dose: 50.0 mg/kg/injection, schedule: Q01DX009 (ip), vehicle: saline with Tween-80
[7] = dose: 100.0 mg/kg/injection, schedule: Q01DX009 (ip), vehicle: saline with Tween-80
[8] = dose: 100.0 mg/kg/injection, schedule: Q04DX003 (ip), vehicle: saline
[9] = dose: 200.0 mg/kg/injection, schedule: Q04DX003 (ip), vehicle: saline
[10] = dose: 50.0 mg/kg/injection, schedule: Q04DX003 (ip), vehicle: saline with Tween-80
[11] = dose: 100.0 mg/kg/injection, schedule: Q04DX003 (ip), vehicle: saline with Tween-80
[12] = dose: 100.0 mg/kg/injection, schedule: Q01DX001 (ip), vehicle: saline

OCCCNc1cccc2ccccc12
T/C [1]: 105 % of control
T/C [2]: 100 % of control
T/C [3]: 100 % of control
T/C (dose: 200.0 mg/kg/injection, schedule: Q04DX003 (ip), vehicle: Klucel (hydroxypropylcellulose) (HPC)): 100 % of control
T/C [4]: 110 % of control
T/C (dose: 400.0 mg/kg/injection, schedule: Q04DX003 (ip), vehicle: Klucel (hydroxypropylcellulose) (HPC)): 100 % of control

c1ccc(CCNCc2ccccc2)cc1
T/C [5]: 100 % of control
T/C [6]: 100 % of control
T/C [7]: 100 % of control

CCCCCC[n+]1cccc(C(N)=O)c1
T/C (dose: 50.0 mg/kg/injection, schedule: Q04DX003 (ip), vehicle: saline): 104 % of control
T/C [8]: 100 % of control
T/C [9]: 95 % of control

CC(O)COCc1ccccc1 (configuration not stated)
T/C [8]: 100 % of control
T/C [9]: 87 % of control
T/C (dose: 400.0 mg/kg/injection, schedule: Q04DX003 (ip), vehicle: saline): 108 % of control

NC(=S)N/N=C/c1ccc2c(c1)OCO2
T/C [10]: 95 % of control
T/C [11]: 100 % of control

COc1cc([C@@H]2c3cc4c(cc3C(Br)[C@H]3COC(=O)[C@H]23)OCO4)cc(OC)c1OC (some centres not stated)
T/C (dose: 1.0 mg/kg/injection, schedule: Q01DX010 (ip), vehicle: carboxymethylcellulose (CMC)): 104 % of control
T/C (dose: 2.1 mg/kg/injection, schedule: Q01DX010 (ip), vehicle: carboxymethylcellulose (CMC)): 104 % of control
T/C (dose: 4.2 mg/kg/injection, schedule: Q01DX010 (ip), vehicle: carboxymethylcellulose (CMC)): 104 % of control
T/C (dose: 7.5 mg/kg/injection, schedule: Q01DX009 (ip), vehicle: Klucel (hydroxypropylcellulose) (HPC)): 161 % of control
T/C (dose: 15.0 mg/kg/injection, schedule: Q01DX009 (ip), vehicle: Klucel (hydroxypropylcellulose) (HPC)): 190 % of control
T/C (dose: 30.0 mg/kg/injection, schedule: Q01DX009 (ip), vehicle: Klucel (hydroxypropylcellulose) (HPC)): 95 % of control

COc1ccc(C(O)CNC(=O)c2ccccc2)cc1 (configuration not stated)
T/C (dose: 66.0 mg/kg/injection, schedule: Q04DX003 (ip), vehicle: Klucel (hydroxypropylcellulose) (HPC)): 109 % of control and 110 % of control
T/C [2]: 255 % of control and 104 % of control and 115 % of control
T/C (dose: 150.0 mg/kg/injection, schedule: Q04DX003 (ip), vehicle: Klucel (hydroxypropylcellulose) (HPC)): 109 % of control and 115 % of control

CCCN1CCN(c2ccc([N+](=O)[O-])c3no[n+]([O-])c23)CC1
T/C (dose: 2.5 mg/kg/injection, schedule: Q01DX009 (ip), vehicle: saline with Tween-80): 122 % of control
T/C (dose: 10.0 mg/kg/injection, schedule: Q01DX009 (ip), vehicle: saline with Tween-80): 155 % of control

CC[N+](C)(C)CC
T/C (dose: 25.0 mg/kg/injection, schedule: Q01DX001 (ip), vehicle: saline): 105 % of control
T/C (dose: 50.0 mg/kg/injection, schedule: Q01DX001 (ip), vehicle: saline): 103 % of control
T/C [12]: 96 % of control and 117 % of control

CC(=O)OCC(=O)[C@@]1(O)CC[C@H]2[C@@H]3CCC4=CC(=O)[C@H](C)C[C@]4(C)[C@H]3[C@@H](O)C[C@@]21C
T/C [1]: 118 % of control
T/C [3]: 109 % of control
T/C [4]: 118 % of control

O=CNC(Cc1cccc(N(CCCl)CCCl)c1)C(=O)O (configuration not stated)
T/C (dose: 11.0 mg/kg/injection, schedule: Q04DX003 (ip), vehicle: saline sonified): 94 % of control
T/C (dose: 16.5 mg/kg/injection, schedule: Q04DX003 (ip), vehicle: saline sonified): 100 % of control
T/C (dose: 25.0 mg/kg/injection, schedule: Q04DX003 (ip), vehicle: saline sonified): 122 % of control
T/C [10]: 177 % of control
T/C [11]: 272 % of control

C[n+]1ccc(Nc2ccc(NC(=O)c3ccc([N+](=O)[O-])cc3)cc2)cc1
T/C (dose: 6.25 mg/kg/injection, schedule: Q01DX009 (ip), vehicle: water): 108 % of control
T/C (dose: 12.5 mg/kg/injection, schedule: Q01DX009 (ip), vehicle: water): 96 % of control
T/C (dose: 12.5 mg/kg/injection, schedule: Q04DX003 (ip), vehicle: water): 100 % of control
T/C (dose: 25.0 mg/kg/injection, schedule: Q01DX009 (ip), vehicle: water): 90 % of control
T/C (dose: 25.0 mg/kg/injection, schedule: Q04DX003 (ip), vehicle: water): 98 % of control and 100 % of control (2×)
T/C (dose: 50.0 mg/kg/injection, schedule: Q01DX009 (ip), vehicle: water): 97 % of control
T/C (dose: 100.0 mg/kg/injection, schedule: Q01DX009 (ip), vehicle: water): 107 % of control
T/C (dose: 150.0 mg/kg/injection, schedule: Q04DX003 (ip), vehicle: water): 91 % of control

CCN(CC)CCNC(=O)c1ccc(COc2ccccc2)cc1
T/C (dose: 50.0 mg/kg/injection, schedule: Q01DX005 (ip), vehicle: saline): 97 % of control
T/C (dose: 100.0 mg/kg/injection, schedule: Q01DX005 (ip), vehicle: saline): 111 % of control
T/C (dose: 200.0 mg/kg/injection, schedule: Q01DX005 (ip), vehicle: saline): 97 % of control

Nc1cccc(NC=O)c1
T/C (dose: 12.5 mg/kg/injection, schedule: Q01DX009 (ip), vehicle: saline with Tween-80): 100 % of control
T/C [5]: 108 % of control
T/C [6]: 95 % of control

COC(=O)C(Br)C(Br)c1ccccc1 (configuration not stated)
T/C [7]: 113 % of control
T/C (dose: 400.0 mg/kg/injection, schedule: Q01DX009 (ip), vehicle: saline with Tween-80): 118 % of control

CC12CCCN(CCCl)C1CCC1C2CCC2(C)C1CCCN2CCCl (configuration not stated)
T/C (dose: 0.38 mg/kg/injection, schedule: Q01DX001 (ip), vehicle: saline): 98 % of control
T/C (dose: 0.75 mg/kg/injection, schedule: Q01DX001 (ip), vehicle: saline): 102 % of control
T/C (dose: 0.78 mg/kg/injection, schedule: Q01DX001 (ip), vehicle: saline): 102 % of control
T/C (dose: 1.5 mg/kg/injection, schedule: Q01DX001 (ip), vehicle: saline): 109 % of control
T/C (dose: 1.56 mg/kg/injection, schedule: Q01DX001 (ip), vehicle: saline): 100 % of control
T/C (dose: 3.13 mg/kg/injection, schedule: Q01DX001 (ip), vehicle: saline): 107 % of control
T/C (dose: 6.25 mg/kg/injection, schedule: Q01DX001 (ip), vehicle: saline): 116 % of control

CCOP(=O)(C/C(=N\Nc1ccc([N+](=O)[O-])cc1[N+](=O)[O-])c1ccccc1)c1ccccc1 (configuration not stated)
T/C (dose: 25.0 mg/kg/injection, schedule: Q01DX001 (ip), vehicle: saline with Tween-80): 100 % of control
T/C (dose: 50.0 mg/kg/injection, schedule: Q01DX001 (ip), vehicle: saline with Tween-80): 104 % of control
T/C (dose: 100.0 mg/kg/injection, schedule: Q01DX001 (ip), vehicle: saline with Tween-80): 95 % of control

C#CCN(C)CCO
T/C [12]: 105 % of control
T/C (dose: 100.0 mg/kg/injection, schedule: Q04DX003 (ip), vehicle: alcohol): 90 % of control
T/C (dose: 200.0 mg/kg/injection, schedule: Q01DX001 (ip), vehicle: saline): 95 % of control
T/C (dose: 200.0 mg/kg/injection, schedule: Q04DX003 (ip), vehicle: alcohol): 100 % of control
T/C (dose: 400.0 mg/kg/injection, schedule: Q01DX001 (ip), vehicle: saline): 100 % of control
T/C (dose: 400.0 mg/kg/injection, schedule: Q04DX003 (ip), vehicle: alcohol): 100 % of control

COC(=O)CCSC(c1ccccc1)(c1ccccc1)c1ccccc1
T/C (dose: 87.0 mg/kg/injection, schedule: Q01DX009 (ip), vehicle: Klucel (hydroxypropylcellulose) (HPC)): 96 % of control

CC(=O)c1ccc2ccccc2c1OC(=O)c1ccncc1
T/C (dose: 12.5 mg/kg/injection, schedule: Q01DX009 (ip), vehicle: other): 99 % of control
T/C (dose: 25.0 mg/kg/injection, schedule: Q01DX009 (ip), vehicle: other): 98 % of control
T/C (dose: 50.0 mg/kg/injection, schedule: Q01DX009 (ip), vehicle: other): 107 % of control
T/C (dose: 100.0 mg/kg/injection, schedule: Q01DX009 (ip), vehicle: other): 118 % of control
T/C (dose: 200.0 mg/kg/injection, schedule: Q01DX009 (ip), vehicle: other): 107 % of control

COc1ccc2c(c1)CC1NCCc3cc4c(c-2c31)OCO4 (configuration not stated)
T/C [6]: 114 % of control
T/C [7]: 97 % of control

NNc1n[nH]c(=S)n1N
T/C (dose: 6.25 mg/kg/injection, schedule: Q04DX003 (ip), vehicle: saline with Tween-80): 104 % of control
T/C (dose: 12.5 mg/kg/injection, schedule: Q04DX003 (ip), vehicle: saline with Tween-80): 100 % of control
T/C (dose: 25.0 mg/kg/injection, schedule: Q04DX003 (ip), vehicle: saline with Tween-80): 95 % of control
